PMC7482845, “G10 is a direct activator of human STING” (PLoS ONE, 2020)
Converted amounts (≈) assume the structure as drawn.

Key:
[1] = biological target: HAQ variant of human STING (Homo sapiens, UniProt Q86WV6, G230A/R293Q/R71H); assay: Luciferase (ISRE.ISG reporter) assay in HEK293T cells stably expressing HAQ hSTING; format: cell-based; details: ISRE.ISG54 luciferase reporter, 18 hours, compared with R232 and H232
Text: • a) Stable STING expressing cells. Stable HEK293T STING-expressing cell lines were generated using plasmids purchased from Invivogen, CA, USA, that contain STING cDNA cloned into the pUNO-1 vector under the hEF1-HTLV promoter as well as the Blasticidin selection cassette. The human STING plasmids corresponding to the R232, H232 and HAQ variants were directly procured from Invivogen while the AQ and Q variants were created by mismatch PCR using cDNA from HAQ.STING and R232.STING variants respectively. These vectors were individually transfected into HEK293T cells using Lipofectamine (Invitrogen) and transfected cells were expanded under Blasticidin selection. These cells were further subjected to clonal selection using the limiting dilution method to obtain clonally pure populations of HEK293T cells expressing each of the five human STING variants. Clones with minimal ligand independent activation of STING were chosen for cellular experiments. • b) N-His R232.hSTING HEK293T cells. HEK293T cells stably expressing N-His R232.hSTING were generated by the following described method. N-His R232.hSTING.pcDNA Myc B plasmid was transfected into HEK293T cells using Lipofectamine reagent (Invitrogen) and the transfected cells were selected under Hygromycin. […]

[2] = Solubility under assay conditions; format: physicochemical; details: under our assay conditions; read-out: maximum solubility
[3] = test system: parent HEK293T cells; assay: Luciferase assay in parent (control) HEK293T cells without STING; format: cell-based, human; details: HEK293T cells that do not express STING (S1 Fig)
Method: […] clonally selected HEK293T-hSTING-Luciferase cells or control HEK293T-Luciferase cells were seeded in 384-well plates in growth medium and stimulated with known STING agonists or novel compounds. Supernatants were removed after 20 hours of treatment and secretory reporter gene activity was measured using the Quanti-Luc detection system (Invivogen) on a Spectramax i3X luminometer.

[4] = biological target: T1, R232 variant of human STING (THP-1-Dual KI-hSTING-R232 cells) (Homo sapiens, UniProt Q86WV6, H232R); assay: Western blot of pSTING and pIRF3 in THP1-R232 knock in cells; format: cell-based; details: immunoblot, 2 hours, R232 STING in HAQ knockout background
T1 construct: host or cells: THP-1-Dual KI-hSTING-R232
T1 sequence (Q86WV6 whole entry H232R): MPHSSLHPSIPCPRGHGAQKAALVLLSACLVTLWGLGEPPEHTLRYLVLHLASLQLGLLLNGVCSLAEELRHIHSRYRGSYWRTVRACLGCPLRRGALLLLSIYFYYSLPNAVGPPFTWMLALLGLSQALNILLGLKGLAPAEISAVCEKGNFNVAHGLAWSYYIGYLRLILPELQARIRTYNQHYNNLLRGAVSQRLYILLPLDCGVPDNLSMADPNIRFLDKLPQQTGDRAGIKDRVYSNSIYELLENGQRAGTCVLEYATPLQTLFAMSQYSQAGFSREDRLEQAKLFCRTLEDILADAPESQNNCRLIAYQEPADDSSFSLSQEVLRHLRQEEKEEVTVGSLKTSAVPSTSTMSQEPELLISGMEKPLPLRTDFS
Method: HEK293T cells were procured from ATCC. THP-1 and THP-1-Dual KI-hSTING-R232 cells which contained the R232 version of STING was knocked in to THP1 cells in which the HAQ version was ablated, were procured from Invivogen, CA, USA.
5 x 10^5 cells were seeded in 24-well plates in 500 μl growth medium and stimulated with novel compounds at 10μM. After 2 hours of treatment cells were harvested by centrifugation and cell pellets were lysed in RIPA buffer (20mM Tris-Cl, 150mM NaCl, 0.5mM EDTA, 1% NP40, 0.05% SDS) containing 1x phosphatase inhibitor cocktail 3 (Sigma) and 1x protease inhibitor (Roche) to extract the soluble fraction of protein. 10 μg of extracted protein was electrophoresed in 10% SDS-PAGE gels and transferred onto Immobilon-P membranes (Millipore). […] Anti-rabbit HRP label secondary antibody (Abcam) and Clarity Max™ western ECL substrate (Biorad—cat# 1705062) were used for visualization of bands using a BioRad XRS plus imager.

[5] = biological target: T2, R232.hSTING (CT26 cells) (Homo sapiens, UniProt Q86WV6, H232R); assay: Western blot of Hu-pSTING and pIRF3 in R232.hSTING.CT26 cells; format: cell-based; details: immunoblot, 2 hours
T2 construct: expressed in transfected cells; host or cells: CT26 (murine)
T2 sequence (Q86WV6 whole entry H232R): as above
Method: 5 x 10^5 cells were seeded in 24-well plates in 500 μl growth medium and stimulated with novel compounds at 10μM. After 2 hours of treatment cells were harvested by centrifugation and cell pellets were lysed in RIPA buffer (20mM Tris-Cl, 150mM NaCl, 0.5mM EDTA, 1% NP40, 0.05% SDS) containing 1x phosphatase inhibitor cocktail 3 (Sigma) and 1x protease inhibitor (Roche) to extract the soluble fraction of protein. 10 μg of extracted protein was electrophoresed in 10% SDS-PAGE gels and transferred onto Immobilon-P membranes (Millipore).

[6] = test system: ligand binding domain of the R232 variant of STING; design: method as in PMID 26646986; details: cited from earlier work
[7] = test system: human PBMCs and umbilical endothelial cells; design: method as in PMID 26646986; details: cited from earlier work
[8] = biological target: R232 STING (R232-HEK293T cells) (Homo sapiens, UniProt Q86WV6, H232R); assay: Ligand induced change in STING melting temperature, R232-HEK293T whole cells; details: whole cells (S8 and S9 Figs)
Chain of R232 STING (R232-HEK293T cells) (Q86WV6 whole entry H232R): as above
Method: Two sources of STING (ER fraction of N-His R232.hSTING HEK293T and R232.hSTING HEK293T whole cells) were used for melting temperature experiments. […] (b) 5 x 10^5 R232.hSTING cells were seeded in 24-well plates in 500 μl growth medium and stimulated with serially diluted concentrations of agonist. After 2hr of stimulation cells were harvested through centrifugation and 20 μl cells suspensions were transferred into 0.2 ml PCR-tubes and heated as above. All procedures were identical post-heating of samples. […] Precipitated proteins were separated from the soluble fraction by centrifugation at 21000g for 20 min at 4 °C. Extracted soluble protein was electrophoresed in 10% SDS-PAGE gels and transferred onto Immobilon-P membranes (Millipore). Blots were incubated with antibodies specific for total STING (Cell Signaling).

Chain of HAQ variant of human STING (Q86WV6 whole entry R71H/G230A/R293Q): as the sequence (Q86WV6 whole entry H232R) above, with R71H, G230A, R232H, R293Q counted along it

Q: What does the source list for O=C(NCc1ccco1)c1ccc2c(c1)N(Cc1c(F)cccc1Cl)C(=O)CS2 [Compound G10, 4-(2-Chloro-6-fluorobenzyl)-N-(furan-2-ylmethyl)-3-oxo-3,4-dihydro-2H-benzo[b][1,4]thiazine-6-carboxamide]?
A: activity against the HAQ variant [1]: less active; solubility [2]: 20 µM (≈ 8.62 µg/mL); response of parent HEK293T cells (reporter gene expression) [3]: unresponsive; phosphorylation of STING and IRF3 in THP1-R232 cells [4]: led to phosphorylation of STING and IRF3; phosphorylated hSTING (and mIRF3) in CT26 cells overexpressing R232.hSTING [5]: significant amounts; direct engagement with ligand binding domain of R232 STING (DSF) [6]: no evidence of direct engagement; induction of pro-inflammatory genes incl. NFκB pathway [7]: induced several pro-inflammatory genes; ligand induced change in STING melting temperature, R232-HEK293T cells [8]: did not demonstrate a significant ligand induced change
